# Results from patent US8952024B2, “Herbicidal pyrimidone derivatives” (E I du Pont de Nemours and Company, priority 2009, dated 2015).
# What was measured:
# Assay type in all cases: in vivo
# [1] = test system: barnyardgrass (Echinochloa crus-galli); experiment: Test A pre-/postemergence plant response
# Procedure, shortened: (§1)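 Injury was scored visually after roughly ten days against untreated controls, 0 = no effect, 100 = complete control. Test chemicals in a surfactant-containing non-phytotoxic solvent were sprayed either onto soil preemergence or onto one- to two-leaf, 2–10 cm plants postemergence.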
# corn (Zea mays) = experiment: Test A pre-/postemergence plant response
# Procedure, shortened: as §1
# [2] = test system: giant foxtail (Setaria faberii); experiment: Test A pre-/postemergence plant response
# Procedure, shortened: as §1
# [3] = test system: large crabgrass (Digitaria sanguinalis); experiment: Test A pre-/postemergence plant response
# Procedure, shortened: as §1
# [4] = test system: morningglory (Ipomoea spp.); experiment: Test A pre-/postemergence plant response
# Procedure, shortened: as §1
# [5] = test system: pigweed (Amaranthus retroflexus); experiment: Test A pre-/postemergence plant response
# Procedure, shortened: as §1
# [6] = test system: velvetleaf (Abutilon theophrasti); experiment: Test A pre-/postemergence plant response
# Procedure, shortened: as §1
# [7] = test system: wheat (Triticum aestivum); experiment: Test A pre-/postemergence plant response
# Procedure, shortened: as §1
# [8] = test system: canarygrass (Phalaris minor); experiment: Test B postemergence plant response; details: for Canarygrass plant response rating (0 to 100 scale): 62 g ai/ha, 0 is no effect, 13 to 15 days
# Procedure, shortened: (§2)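 Plants grown in peat/vermiculite medium were sprayed postemergence at 2–18 cm height (1- to 4-leaf stage). After 13–15 days in the greenhouse, response was rated visually against untreated controls on a 0–100 scale (0 no effect, 100 complete control).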
# [9] = test system: chickweed (Stellaria media); experiment: Test B postemergence plant response; details: for Chickweed plant response rating (0 to 100 scale): 62 g ai/ha, 0 is no effect, 13 to 15 days
# Procedure, shortened: as §2
# [10] = test system: windgrass (Apera spica-venti); experiment: Test B postemergence plant response; details: for Windgrass plant response rating (0 to 100 scale): 62 g ai/ha, 0 is no effect, 13 to 15 days
# Procedure, shortened: as §2
# [11] = test system: winter barley (Hordeum vulgare); experiment: Test B postemergence plant response; details: for Barley plant response rating (0 to 100 scale): 62 g ai/ha, 0 is no effect, 13 to 15 days
# Procedure, shortened: as §2
# [12] = Postemergence, 125 g ai/ha, 0 to 100 scale where 0 is no effect and 100 is complete control
# [13] = Postemergence, 500 g ai/ha, 0 to 100 scale, 0 = no effect, 100 = complete control, approx. ten days
# [14] = Preemergence, 125 g ai/ha, 0 to 100 scale, 0 = no effect, 100 = complete control
# [15] = Preemergence, 500 g ai/ha, visual injury, 0 to 100 scale (0 no effect, 100 complete control), approx. ten days
# [16] = 31 g ai/ha, postemergence, scale 0 to 100, 0 is no effect, 100 is complete control
# [17] = postemergence, 100 is complete control
# [18] = Postemergence, 125 g ai/ha, visual rating after 13 to 15 days, scale 0 (no effect) to 100 (complete control)
# [19] = Postemergence, 250 g ai/ha, scale 0 to 100 (0 no effect, 100 complete control)
smiles,measurement,setting,value
CC(C)CC(=O)OC1=C(C(=O)c2cnc(-c3ccccc3)n(-c3ccccc3)c2=O)C(=O)CCC1 [Compound 83],"Plant response rating, Barnyardgrass",[1]; [12],70
same,"Plant response rating, Barnyardgrass",[1]; [13],90
same,"Plant response rating, Barnyardgrass",[1]; [14],30
same,"Plant response rating, Barnyardgrass",[1]; [15],90
same,"Plant response rating, Corn",corn (Zea mays); [12],0
same,"Plant response rating, Corn",corn (Zea mays); [13],30
same,"Plant response rating, Corn",corn (Zea mays); [14],0
same,"Plant response rating, Corn",corn (Zea mays); [15],20
same,"Plant response rating, Foxtail, Giant",[2]; [12],70
same,"Plant response rating, Foxtail, Giant",[2]; [13],90
same,"Plant response rating, Foxtail, Giant",[2]; [14],40
same,"Plant response rating, Foxtail, Giant",[2]; [15],90
same,"Plant response rating, Crabgrass, Large",[3]; [12],80
same,"Plant response rating, Crabgrass, Large",[3]; [13],90
same,"Plant response rating, Crabgrass, Large",[3]; [14],70
same,"Plant response rating, Crabgrass, Large",[3]; [15],100
same,"Plant response rating, Morningglory",[4]; [12],100
same,"Plant response rating, Morningglory",[4]; [13],100
same,"Plant response rating, Morningglory",[4]; [14],20
same,"Plant response rating, Morningglory",[4]; [15],60
same,"Plant response rating, Pigweed",[5]; [12],90
same,"Plant response rating, Pigweed",[5]; [13],100
same,"Plant response rating, Pigweed",[5]; [14],80
same,"Plant response rating, Pigweed",[5]; [15],100
same,"Plant response rating, Velvetleaf",[6]; [12],100
same,"Plant response rating, Velvetleaf",[6]; [13],100
same,"Plant response rating, Velvetleaf",[6]; [14],70
same,"Plant response rating, Velvetleaf",[6]; [15],100
same,"Plant response rating, Wheat",[7]; [12],0
same,"Plant response rating, Wheat",[7]; [13],0
same,"Plant response rating, Wheat",[7]; [14],0
same,"Plant response rating, Wheat",[7]; [15],30
same,"Plant response rating, Canarygrass",[8]; [16],20
same,Canarygrass plant response rating (0 to 100 scale),[8]; [17],20
same,"Plant response rating, Canarygrass",[8]; [18],25
same,"Plant response rating, Canarygrass",[8]; [19],25
same,"Plant response rating, Chickweed",[9]; [16],90
same,Chickweed plant response rating (0 to 100 scale),[9]; [17],90
same,"Plant response rating, Chickweed",[9]; [18],98
same,"Plant response rating, Chickweed",[9]; [19],100
same,"Plant response rating, Windgrass",[10]; [16],5
same,Windgrass plant response rating (0 to 100 scale),[10]; [17],10
same,"Plant response rating, Windgrass",[10]; [19],30
same,"Plant response rating, Barley",[11]; [16],0
same,Barley plant response rating (0 to 100 scale),[11]; [17],5
same,"Plant response rating, Barley",[11]; [18],5
same,"Plant response rating, Barley",[11]; [19],5
COCCn1c(-c2ccccc2)ncc(C(=O)C2=C(O)CCCC2=O)c1=O [Compound 85],"Plant response rating, Barnyardgrass",[1]; [12],90
same,"Plant response rating, Barnyardgrass",[1]; [13],90
same,"Plant response rating, Barnyardgrass",[1]; [14],50
same,"Plant response rating, Barnyardgrass",[1]; [15],100
same,"Plant response rating, Corn",corn (Zea mays); [12],10
same,"Plant response rating, Corn",corn (Zea mays); [13],80
same,"Plant response rating, Corn",corn (Zea mays); [14],0
same,"Plant response rating, Corn",corn (Zea mays); [15],10
same,"Plant response rating, Foxtail, Giant",[2]; [12],70
same,"Plant response rating, Foxtail, Giant",[2]; [13],90
same,"Plant response rating, Foxtail, Giant",[2]; [15],90
same,"Plant response rating, Crabgrass, Large",[3]; [12],90
same,"Plant response rating, Crabgrass, Large",[3]; [13],90
same,"Plant response rating, Crabgrass, Large",[3]; [14],100
same,"Plant response rating, Crabgrass, Large",[3]; [15],100
same,"Plant response rating, Morningglory",[4]; [12],100
same,"Plant response rating, Morningglory",[4]; [13],100
same,"Plant response rating, Morningglory",[4]; [14],50
same,"Plant response rating, Morningglory",[4]; [15],80
same,"Plant response rating, Pigweed",[5]; [12],100
same,"Plant response rating, Pigweed",[5]; [13],100
same,"Plant response rating, Velvetleaf",[6]; [12],100
same,"Plant response rating, Velvetleaf",[6]; [13],100
same,"Plant response rating, Velvetleaf",[6]; [14],70
same,"Plant response rating, Wheat",[7]; [12],0
same,"Plant response rating, Wheat",[7]; [13],40
same,"Plant response rating, Wheat",[7]; [14],0
same,"Plant response rating, Wheat",[7]; [15],40
same,"Plant response rating, Canarygrass",[8]; [16],35
same,Canarygrass plant response rating (0 to 100 scale),[8]; [17],40
same,"Plant response rating, Canarygrass",[8]; [18],55
same,"Plant response rating, Canarygrass",[8]; [19],60
same,"Plant response rating, Chickweed",[9]; [16],85
same,Chickweed plant response rating (0 to 100 scale),[9]; [17],95
same,"Plant response rating, Chickweed",[9]; [18],95
same,"Plant response rating, Chickweed",[9]; [19],98
same,"Plant response rating, Windgrass",[10]; [16],40
same,Windgrass plant response rating (0 to 100 scale),[10]; [17],70
same,"Plant response rating, Windgrass",[10]; [19],95
same,"Plant response rating, Barley",[11]; [16],5
same,Barley plant response rating (0 to 100 scale),[11]; [17],10
same,"Plant response rating, Barley",[11]; [18],20
same,"Plant response rating, Barley",[11]; [19],20
CCCCn1c(-c2ccccc2)ncc(C(=O)C2=C(O)CCCC2=O)c1=O [Compound 86],"Plant response rating, Barnyardgrass",[1]; [12],90
same,"Plant response rating, Barnyardgrass",[1]; [13],90
same,"Plant response rating, Barnyardgrass",[1]; [14],20
same,"Plant response rating, Barnyardgrass",[1]; [15],100
same,"Plant response rating, Corn",corn (Zea mays); [12],0
same,"Plant response rating, Corn",corn (Zea mays); [13],50
same,"Plant response rating, Foxtail, Giant",[2]; [12],80
same,"Plant response rating, Foxtail, Giant",[2]; [13],90
same,"Plant response rating, Foxtail, Giant",[2]; [15],100
same,"Plant response rating, Crabgrass, Large",[3]; [12],90
same,"Plant response rating, Crabgrass, Large",[3]; [13],90
same,"Plant response rating, Morningglory",[4]; [12],90
same,"Plant response rating, Morningglory",[4]; [13],90
same,"Plant response rating, Morningglory",[4]; [14],0
same,"Plant response rating, Morningglory",[4]; [15],60
same,"Plant response rating, Pigweed",[5]; [12],100
same,"Plant response rating, Pigweed",[5]; [13],100
same,"Plant response rating, Velvetleaf",[6]; [12],100
same,"Plant response rating, Velvetleaf",[6]; [13],100
same,"Plant response rating, Velvetleaf",[6]; [15],100
same,"Plant response rating, Wheat",[7]; [12],0
same,"Plant response rating, Wheat",[7]; [13],50
same,"Plant response rating, Canarygrass",[8]; [16],20
same,Canarygrass plant response rating (0 to 100 scale),[8]; [17],20
same,"Plant response rating, Canarygrass",[8]; [18],80
same,"Plant response rating, Canarygrass",[8]; [19],85
same,"Plant response rating, Chickweed",[9]; [16],80
same,Chickweed plant response rating (0 to 100 scale),[9]; [17],95
same,"Plant response rating, Chickweed",[9]; [18],95
same,"Plant response rating, Chickweed",[9]; [19],98
same,"Plant response rating, Windgrass",[10]; [16],30
same,Windgrass plant response rating (0 to 100 scale),[10]; [17],60
same,"Plant response rating, Windgrass",[10]; [19],95
same,"Plant response rating, Barley",[11]; [16],30
same,Barley plant response rating (0 to 100 scale),[11]; [17],40
same,"Plant response rating, Barley",[11]; [18],60
same,"Plant response rating, Barley",[11]; [19],65
O=C1CCCC(OC(=O)C2CC2)=C1C(=O)c1cnc(-c2ccccc2)n(-c2ccccc2)c1=O [Compound 88],"Plant response rating, Barnyardgrass",[1]; [12],80
same,"Plant response rating, Barnyardgrass",[1]; [13],90
same,"Plant response rating, Barnyardgrass",[1]; [14],10
same,"Plant response rating, Barnyardgrass",[1]; [15],90
same,"Plant response rating, Corn",corn (Zea mays); [12],0
same,"Plant response rating, Corn",corn (Zea mays); [13],60
same,"Plant response rating, Corn",corn (Zea mays); [14],0
same,"Plant response rating, Corn",corn (Zea mays); [15],0
same,"Plant response rating, Foxtail, Giant",[2]; [12],60
same,"Plant response rating, Foxtail, Giant",[2]; [13],90
same,"Plant response rating, Foxtail, Giant",[2]; [15],100
same,"Plant response rating, Crabgrass, Large",[3]; [12],90
same,"Plant response rating, Crabgrass, Large",[3]; [13],90
same,"Plant response rating, Morningglory",[4]; [12],90
same,"Plant response rating, Morningglory",[4]; [13],100
same,"Plant response rating, Morningglory",[4]; [14],50
same,"Plant response rating, Morningglory",[4]; [15],70
same,"Plant response rating, Pigweed",[5]; [12],100
same,"Plant response rating, Pigweed",[5]; [13],100
same,"Plant response rating, Velvetleaf",[6]; [12],100
same,"Plant response rating, Velvetleaf",[6]; [13],100
same,"Plant response rating, Velvetleaf",[6]; [14],80
same,"Plant response rating, Velvetleaf",[6]; [15],100
same,"Plant response rating, Wheat",[7]; [12],0
same,"Plant response rating, Wheat",[7]; [13],0
same,"Plant response rating, Wheat",[7]; [14],0
same,"Plant response rating, Wheat",[7]; [15],10
same,"Plant response rating, Canarygrass",[8]; [16],60
same,Canarygrass plant response rating (0 to 100 scale),[8]; [17],70
same,"Plant response rating, Canarygrass",[8]; [18],80
same,"Plant response rating, Canarygrass",[8]; [19],90
same,"Plant response rating, Chickweed",[9]; [16],75
same,Chickweed plant response rating (0 to 100 scale),[9]; [17],85
same,"Plant response rating, Chickweed",[9]; [18],95
same,"Plant response rating, Chickweed",[9]; [19],95
same,"Plant response rating, Windgrass",[10]; [16],40
same,Windgrass plant response rating (0 to 100 scale),[10]; [17],60
same,"Plant response rating, Windgrass",[10]; [19],70
same,"Plant response rating, Barley",[11]; [16],30
same,Barley plant response rating (0 to 100 scale),[11]; [17],30
same,"Plant response rating, Barley",[11]; [18],40
same,"Plant response rating, Barley",[11]; [19],80
